The record followed here is paper PMC10452181, “Synthesis and Biological Evaluation of Cyclobutane-Based β3 Integrin Antagonists: A Novel Approach to Targeting Integrins for Cancer Therapy” (Cancers, 2023).

One data set concerns platelet aggregation. As to the kind of experiment: ADP-induced platelet aggregation in hirudin-treated whole blood (ex vivo). It is filed as cell-based, human. The conditions noted are these: for % Inhibition (Platelet Aggregation) @ 100 μM: ADP 6.4 μM. The protocol:
2.7. Platelet Aggregation Assay
Platelet aggregation was measured in hirudin-anticoagulated whole blood from a healthy donor with ADP as agonist (end concentration 6.4 μM) using a Multiplate® impedance aggregometer (Dynabyte Informationssysteme GmbH, Munich, Germany). At 37 °C, cells were charged with 300 μL of saline, 300 μL of blood, 1 μL of compound (0.1% DMSO) and incubated for 3 min. The agonist was added and the increase in electrical impedance measured from 2 electrode pairs/cell for 6 min, transformed into arbitrary units (AU), and the area under the curve was calculated.

The target of a further data set is T1, αIIbβ3 (Homo sapiens, UniProt P05106+P08514).
T1 construct: purchased Sigma
As to the kind of experiment: αIIbβ3/fibrinogen purified protein binding ELISA. The conditions noted are these: for IC50: read-out: IC50 (αIIbβ3/Fg). The protocol: ELISA assays were performed as previously described with minor modifications. Briefly, serial dilutions of compounds were prepared in dimethyl sulfoxide (DMSO). C8 Maxi Immuno modules (Fisher Scientific) were incubated overnight at 4 °C with 0.5 μg/well of fibrinogen (Sigma) in sterile phosphate buffered saline (PBS, 0.2 g/L KCl, 8.0 g/L NaCl, 0.2 KH2PO4, 1.15 g/L Na2HPO4, pH 7.4). All subsequent wash steps were performed using 25 mM Tris, pH 7.6, 150 mM NaCl, 1 mM MnCl2, 1 mg/mL BSA, and binding/inhibition was carried out in 25 mM Tris, pH 7.6, 150 mM NaCl, 1 mM MnCl2, 1 mM MgCl2, 1 mM CaCl2, 1 mg/mL BSA.
Wells were washed and blocked with a blocking solution (PBS, 0.1% Tween 20, 3% BSA) for 1 h at 37 °C. Compounds were added to the wells at indicated concentrations (final 0.5% DMSO) in the presence of 0.5 µg/well αIIbβ3 (Sigma) and incubated at room temp for 1 h. After 3 washes, primary anti-αIIb (1:200 dilution, Santa Cruz Biotech, Heidelberg, Germany) and antigoat–HRP (1:500 dilution, Dako, Agilent, Santa Clara, CA, USA) were added at room temp for 1 h. The wells were washed and incubated with 0.1 mg/mL tetra-methylbenzidine (Sigma) for 25 min and the reaction was stopped with 1N H2SO4 (100 μL/well). The absorbance was measured at 450 nm using a Multiscan Spectrum reader (Thermo Scientific, Thermofisher, UK) and SkanIT RE (v2.4.4.5) software. Results were plotted as percent binding vs. log concentration and IC50 values determined.

The next data set deals with M14. Put plainly: Cytotoxicity by MTT assay, 96 h, M14. It is filed as cell-based, human. The conditions noted are these: MTT, 96 hours. The protocol:
(§1) Before use in cell-based assays of integrin function, the effect of compounds on cell proliferation was tested using the MTT assay to avoid adhesion results being confounded by cell death (Supplementary Table S1). The effect of compounds on cell adhesion was then initially tested at a single, nontoxic concentration to identify active antagonists for further characterisation; those displaying a promising activity in the adhesion assay were tested at a wider range of concentrations to determine the IC50 (Table 2). […] Nevertheless, it is a cost-effective initial screening method. page 4: Table S1. Cytotoxicity of compounds on the cell lines used in the functional assays (measured by MTT assay). Cells (2000 cells/well for Sk-Mel-2; 1 x 10^4 cells/mL for M14) were incubated for 96 hours at 37 ° C in a total volume of 200 μL/well (180 μL medium + 20 μ L test compound solution). After 96 hours, the medium was replaced by fresh medium containing 0.5 mg/ml (end conc.) MTT per well, incubated for 4 h then the plate processed and read as described in the main text. […] ICT9053 41 naphthyridine 1 NHSO2Mes H Ester 52.6 ± 0.6 72.7 ± 9.8 ICT9065 42 naphthyridine 1 H H Ester >100 - ICT9079 43 naphthyridine 0 NHSO2Mes H Ester ~100 - ICT9061 44 naphthyridineT 1 NHSO2Mes H Ester 46.8 ± 10.7 - […] Ester 65.4 ± 11.1 >100 […] Ester 9.6 ± 5.7 >100 […] Ester >100 - […] Ester 54.6 ± 11.0 - […] Ester >5 3.3 ± 0.8 […] ICT9028 51 pyrimidine 2 NHSO2Ph H Acid >100 - ICT9031 52 pyrimidineT 1 NHSO2Mes H Acid >100 - ICT9090 53 pyrimidineT 2 NHSO2Mes H Acid >50 - ICT9029 54 pyrimidineT 2 NHSO2Ph H Acid >100 - ICT9063 55 naphthyridine 1 NHSO2Mes H Acid 61.7 ± 2.8 - […] Acid 45.5 ± 7.9 >100 […] 42.5 ± 1.8 >50 RGDS >50 - T trans configuration of cyclobutane sidechains.
A general note: Tetrazolium assays rely on reduction of a dye to a coloured formazan, in cell work by metabolically active cells.

A further data set deals with Sk-Mel-2. As to the kind of experiment: in vitro. It is filed as cell-based, human. The protocol: as §1
For a further data set, the system named is M14 cells. As to the kind of experiment: cells. The conditions noted are these: M14 scratch wound, 24 h, mean ± SD; read-out: Migration IC50. It is filed as cell-based, human. As to the method: M14 cells (4 × 10^5/mL in RPMI 1640 medium) were seeded in six-well plates and incubated at 37 °C in a 5% CO2 humidified atmosphere for 48 h. The resulting confluent monolayer was scratched with a sterile P200 pipette tip to create a gap (approximately 2 cm in length and 650 μm in width) in the centre of the well. The medium was removed, and the cells washed with Hank’s balanced salt solution (HBSS) (1 mL) and replaced with a medium containing the test antagonist. After 24 h, the cells were washed twice with HBSS and fixed with ice-pre-cooled methanol for thirty minutes at −20 °C. Following hydration with two washes in PBS, the monolayers were counterstained with Harris’s haematoxylin solution for two minutes, then washed in tap water for one minute and left to dry at room temperature. The plates were observed using an inverted microscope, and digital images captured.
The anti-αvβ3 activity of selected compounds was confirmed in a wound-healing assay (Figure 3). A number of cell lines were initially investigated for their suitability in this assay. The Sk-Mel-2 cell line which adhered well to fibronectin in the adhesion assay migrated very slowly; therefore, M14 melanoma cells which combined high levels of αvβ3 with rapid migration and low levels of proliferation over the assay period (Supplementary Figure S4) were selected.

The target of a further data set is T2, αvβ3 (Homo sapiens, UniProt P05106+P06756).
T2 construct: endogenous in cells; host or cells: SK-Mel-2 melanoma cells
As to the kind of experiment: Sk-Mel-2 cell adhesion to immobilised fibronectin (cell-binding assay, MTT readout). The conditions noted are these: Sk-Mel-2 adhesion to Fn, mean ± SD. It is filed as cell-based. As to the method: First, 96-well plates (Corning, VWR) were coated overnight at 4 °C with 0.5 μg/well fibronectin (Sigma). SK-Mel-2 cells were trypsinised, washed and resuspended in RPMI medium only at 10^5 cells/mL. Cells (100 µL/well) were treated with compound (DMSO final concentration 0.1%) at the indicated concentration for 4 hrs on a rotary shaker. Plates were washed (3 × PBS) and blocked with PBS/5% BSA for 2 hrs at 37 °C prior to adding the cells. Cells were incubated on the plates at 37 °C in a humidified chamber with 5% CO2 for 1 hr. The plates were washed 3× with PBS and a 200 µL/well RPMI medium containing 10% FCS added. The plates were incubated overnight at 37 °C as above. Finally, 0.5 mg/mL of 3-(4,5-dimethythiazol-2-yl)-2,5-diphenyl tetrazolium bromide (MTT) was added to each well and the plates incubated for a further 4 h. The medium was removed, and the insoluble formazan dissolved in 150 µL of DMSO. Absorbance was measured at 540 nm using a Thermo Multiskan EX (Thermofisher, UK)and Ascent Software (v2.6). Total binding was determined based on controls lacking any compounds (100% binding) in fibronectin-coated wells and uncoated wells blocked with BSA (0% binding) and corrected for background (no cells, fibronectin-coated).
As an initial test of anti-β3 activity, the ability of compounds to inhibit the adhesion of melanoma cells expressing high levels of αvβ3 and low levels of other RGD-binding integrins such as αvβ5 and α5β1 to immobilised fibronectin was evaluated.
Cells were seeded onto precoated plates in the presence or absence of putative antagonists and the number of adherent cells quantified colorimetrically.

Read-outs that look alike come from different tables or passages of the source.

T2 sequence (P06756 31-889 limits assumed): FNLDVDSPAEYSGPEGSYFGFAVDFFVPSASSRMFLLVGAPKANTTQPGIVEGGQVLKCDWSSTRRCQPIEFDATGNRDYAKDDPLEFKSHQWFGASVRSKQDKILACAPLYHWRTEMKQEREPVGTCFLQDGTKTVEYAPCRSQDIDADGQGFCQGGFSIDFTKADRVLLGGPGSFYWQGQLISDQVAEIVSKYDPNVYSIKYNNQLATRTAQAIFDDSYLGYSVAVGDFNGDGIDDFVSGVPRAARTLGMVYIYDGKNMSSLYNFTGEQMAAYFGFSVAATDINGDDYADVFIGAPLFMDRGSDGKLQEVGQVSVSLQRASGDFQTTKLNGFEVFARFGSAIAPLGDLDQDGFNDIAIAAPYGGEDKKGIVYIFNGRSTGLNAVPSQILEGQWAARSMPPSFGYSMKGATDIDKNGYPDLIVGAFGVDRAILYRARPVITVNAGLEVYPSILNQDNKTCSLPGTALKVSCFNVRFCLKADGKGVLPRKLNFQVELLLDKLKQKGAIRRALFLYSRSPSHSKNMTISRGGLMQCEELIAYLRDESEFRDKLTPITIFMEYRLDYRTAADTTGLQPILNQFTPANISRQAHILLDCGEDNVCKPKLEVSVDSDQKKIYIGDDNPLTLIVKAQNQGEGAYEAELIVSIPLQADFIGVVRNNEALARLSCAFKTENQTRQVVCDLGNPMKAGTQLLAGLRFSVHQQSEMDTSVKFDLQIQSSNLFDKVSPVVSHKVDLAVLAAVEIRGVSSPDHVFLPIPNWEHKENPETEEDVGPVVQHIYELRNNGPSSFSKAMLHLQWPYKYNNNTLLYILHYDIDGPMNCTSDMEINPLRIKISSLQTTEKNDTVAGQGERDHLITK
T2 sequence (P06756 891-1048 partner limits assumed): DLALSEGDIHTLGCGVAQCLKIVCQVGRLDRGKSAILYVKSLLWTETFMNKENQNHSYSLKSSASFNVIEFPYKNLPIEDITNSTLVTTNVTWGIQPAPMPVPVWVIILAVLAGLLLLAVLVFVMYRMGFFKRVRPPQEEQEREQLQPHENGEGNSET
T2 sequence (P05106 27-788): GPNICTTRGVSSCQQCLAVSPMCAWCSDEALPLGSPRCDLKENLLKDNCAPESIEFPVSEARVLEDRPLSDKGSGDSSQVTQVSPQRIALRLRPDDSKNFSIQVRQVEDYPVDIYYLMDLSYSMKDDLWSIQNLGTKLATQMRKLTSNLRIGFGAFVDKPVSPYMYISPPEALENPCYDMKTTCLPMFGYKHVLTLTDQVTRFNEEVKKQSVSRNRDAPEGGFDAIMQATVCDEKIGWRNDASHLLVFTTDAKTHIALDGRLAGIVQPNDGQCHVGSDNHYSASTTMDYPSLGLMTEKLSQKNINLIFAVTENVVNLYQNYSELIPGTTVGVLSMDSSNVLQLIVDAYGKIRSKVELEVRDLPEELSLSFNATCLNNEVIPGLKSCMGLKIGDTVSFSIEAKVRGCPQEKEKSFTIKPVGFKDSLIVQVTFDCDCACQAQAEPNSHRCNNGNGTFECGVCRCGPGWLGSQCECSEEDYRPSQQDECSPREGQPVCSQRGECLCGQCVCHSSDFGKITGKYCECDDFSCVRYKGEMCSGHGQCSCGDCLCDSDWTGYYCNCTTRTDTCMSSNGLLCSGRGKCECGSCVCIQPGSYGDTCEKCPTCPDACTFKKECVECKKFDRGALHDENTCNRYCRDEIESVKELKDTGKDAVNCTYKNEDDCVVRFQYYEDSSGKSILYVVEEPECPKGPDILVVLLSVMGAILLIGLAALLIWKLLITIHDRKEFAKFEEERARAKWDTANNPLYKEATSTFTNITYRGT
T1 sequence (P08514 32-887 limits assumed): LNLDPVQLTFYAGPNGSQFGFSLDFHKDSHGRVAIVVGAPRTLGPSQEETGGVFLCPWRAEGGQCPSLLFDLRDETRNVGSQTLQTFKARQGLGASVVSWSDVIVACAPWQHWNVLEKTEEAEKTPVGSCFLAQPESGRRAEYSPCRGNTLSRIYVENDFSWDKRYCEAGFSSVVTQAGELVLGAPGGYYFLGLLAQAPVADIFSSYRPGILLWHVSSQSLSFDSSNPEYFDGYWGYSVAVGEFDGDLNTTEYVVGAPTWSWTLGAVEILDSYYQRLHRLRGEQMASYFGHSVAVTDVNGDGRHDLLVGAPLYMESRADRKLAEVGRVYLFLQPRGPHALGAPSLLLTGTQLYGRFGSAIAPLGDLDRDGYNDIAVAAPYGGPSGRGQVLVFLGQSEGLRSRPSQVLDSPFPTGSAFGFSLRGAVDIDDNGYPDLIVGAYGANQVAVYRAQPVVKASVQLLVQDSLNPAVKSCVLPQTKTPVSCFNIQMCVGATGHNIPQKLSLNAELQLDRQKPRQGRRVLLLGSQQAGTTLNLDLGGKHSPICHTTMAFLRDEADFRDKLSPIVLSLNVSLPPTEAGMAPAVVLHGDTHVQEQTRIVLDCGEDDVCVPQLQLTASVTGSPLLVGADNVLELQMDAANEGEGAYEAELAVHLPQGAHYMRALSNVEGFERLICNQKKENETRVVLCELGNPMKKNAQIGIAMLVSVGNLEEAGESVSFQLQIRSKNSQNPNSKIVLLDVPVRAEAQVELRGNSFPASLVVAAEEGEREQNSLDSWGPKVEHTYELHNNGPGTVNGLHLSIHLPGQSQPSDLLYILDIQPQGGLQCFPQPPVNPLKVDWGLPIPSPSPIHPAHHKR
T1 sequence (P08514 891-1039 partner limits assumed): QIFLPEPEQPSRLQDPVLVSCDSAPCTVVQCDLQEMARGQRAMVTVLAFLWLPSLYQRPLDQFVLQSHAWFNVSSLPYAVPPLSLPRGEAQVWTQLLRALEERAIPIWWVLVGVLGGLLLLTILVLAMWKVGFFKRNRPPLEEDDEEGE
T1 sequence (P05106 27-788): as the sequence (P05106 27-788) above

For the molecule `Cl.Cl.Cl.N=C(N)c1ccc(N2CCN(C3CCN(CC(=O)O)CC3)CC2)cc1` [GR144053, reference compound], in the data set on platelet aggregation, the “% Inhibition (Platelet Aggregation) @ 100 μM” value came to 100%. The IC50 with platelet aggregation (ADP-induced) was 0.24 µM; at αIIbβ3 (positive control) it was 0.0237 ± 0.0031 µM.

Take `COC(=O)[C@H](CNC(=O)[C@H]1C[C@H](CCCCNc2ncccn2)C1)NS(=O)(=O)c1c(C)cc(C)cc1C` [ICT9018 26, (S)-methyl 3-((1r,3r)-3-(4-(pyrimidin-2-ylamino)butyl)cyclobutanecarboxamido)-2-(2,4,6-trimethylphenylsulfonamido)propanoate]: the figures for the IC50 in the data set with M14, with Sk-Mel-2 and in the data set with M14 cells were greater than 100 µM, 72 ± 6.5 µM and greater than 10 µM, respectively. The “Adhesion % Inhibition @ 5 μM” value on αvβ3 was found to be 20.9 ± 27.5%.

With `COC(=O)[C@H](CNC(=O)C1CC(CCNc2ncccn2)C1)NS(=O)(=O)c1c(C)cc(C)cc1C` (stereo partly drawn) [ICT9019 21, (S)-Methyl 3-((1s,3r)-3-(2-(pyrimidin-2-ylamino)ethyl)cyclobutanecarboxamido)-2-(2,4,6-trimethylphenylsulfonamido)propanoate], the IC50 in the data set with M14 was greater than 100 µM; in the data set with Sk-Mel-2 it was 53.8 ± 3.2 µM; in the data set with M14 cells, 9.5 ± 0.9 µM; on αvβ3 it was 50 ± 5 µM. The “% Inhibition (αIIbβ3/Fg) @ 50 μM” value on αIIbβ3 (mean ± SD) came to 15.6 ± 14.5%. At αvβ3, the “Adhesion % Inhibition @ 5 μM” value worked out at 35.2 ± 19.1%. For the same molecule, at αvβ3, the “Adhesion % Inhibition @ 50 μM” value turned out to be 48.3 ± 4.1%.

As to `COC(=O)[C@H](CNC(=O)[C@H]1C[C@H](CCCNc2ncccn2)C1)NS(=O)(=O)c1c(C)cc(C)cc1C` [ICT9020 24], the IC50 is 36 ± 18.6 µM in the data set on M14, 57.8 ± 1.9 µM in the data set on Sk-Mel-2 and greater than 10 µM in the data set with M14 cells. The “Adhesion % Inhibition @ 5 μM” value on αvβ3 is given as 19.1 ± 14.2%.

Turning to `Cc1cc(C)c(S(=O)(=O)N[C@@H](CNC(=O)C2CC(CCNc3ncccn3)C2)C(=O)O)c(C)c1` (stereo partly drawn) [ICT9030 50, (S)-3-((1s,3r)-3-(2-(pyrimidin-2-ylamino)ethyl)cyclobutanecarboxamido)-2-(2,4,6-trimethylphenylsulfonamido)propanoic acid], at αIIbβ3 (mean ± SD), the “% Inhibition (αIIbβ3/Fg) @ 50 μM” value came out at 91.2 ± 9.6% and the IC50 amounted to 3.5 ± 1.9 µM. Moreover, in the data set on Sk-Mel-2, the IC50 worked out at 90.2 ± 4.3 µM. In addition, at αvβ3, the “Adhesion % Inhibition @ 5 μM” value was 4.5 ± 19.6%, the “Adhesion % Inhibition @ 50 μM” value was found to be 51 ± 9.0% and the IC50 is 50 ± 7 µM.

On to `Cc1cc(C)c(S(=O)(=O)N[C@@H](CNC(=O)C2CC(CCNc3ncccn3)C2)C(=O)O)c(C)c1` (stereo partly drawn) [ICT9031 52, (S)-3-((1r,3s)-3-(2-(pyrimidin-2-ylamino)ethyl)cyclobutanecarboxamido)-2-(2,4,6-trimethylphenylsulfonamido)propanoic acid], for which the “% Inhibition (Platelet Aggregation) @ 100 μM” value in the data set on platelet aggregation came to 11.1%. For the same molecule, at αIIbβ3 (mean ± SD), the “% Inhibition (αIIbβ3/Fg) @ 50 μM” value is recorded as 96.2 ± 6.3% and the IC50 came out at 1.7 ± 2.4 µM. The molecule also yielded an IC50 in the data set with Sk-Mel-2 greater than 100 µM. Further, on αvβ3, the “Adhesion % Inhibition @ 50 μM” value is reported as 11.1 ± 2.4% and the IC50 was greater than 50 µM.

Turning to `COC(=O)[C@H](CNC(=O)[C@H]1C[C@H](CCc2ccc3cccnc3n2)C1)NS(=O)(=O)c1c(C)cc(C)cc1C` [ICT9053 41, (S)-methyl 3-((1r,3r)-3-(2-(1,8-naphthyridin-2-yl)ethyl)cyclobutanecarboxamido)-2-(2,4,6-trimethylphenylsulfonamido)propanoate], the IC50 in the data set with M14 was 72.7 ± 9.8 µM; on αIIbβ3 (mean ± SD), greater than 100 µM; in the data set on Sk-Mel-2 it was 52.6 ± 0.6 µM; in the data set on M14 cells, greater than 10 µM; on αvβ3, greater than 5 µM. Besides, the “% Inhibition (αIIbβ3/Fg) @ 50 μM” value at αIIbβ3 (mean ± SD) was 29.4 ± 17.6%. In addition, the “Adhesion % Inhibition @ 5 μM” value at αvβ3 is on record as 27.5 ± 32.9%.

As to `COC(=O)[C@H](CNC(=O)C1CC(CCc2ccc3c(n2)NCCC3)C1)NS(=O)(=O)c1ccccc1` (stereo partly drawn) [ICT9057 45, (S)-methyl 2-(phenylsulfonamido)-3-((1r,3r)-3-(2-(5,6,7,8-tetrahydro-1,8-naphthyridin-2-yl)ethyl)cyclobutanecarboxamido)propanoate], the IC50 is greater than 100 µM with M14, 65.4 ± 11.1 µM in the data set on Sk-Mel-2 and 1 ± 0.09 µM in the data set on M14 cells. Also, the “Adhesion % Inhibition @ 5 μM” value at αvβ3 is on record as 59.5 ± 24.0%.

For `COC(=O)[C@H](CNC(=O)[C@H]1C[C@@H](CCc2ccc3c(n2)NCCC3)C1)NS(=O)(=O)c1c(C)cc(C)cc1C` [ICT9062 49, (S)-methyl 3-((1s,3s)-3-(2-(5,6,7,8-tetrahydro-1,8-naphthyridin-2-yl)ethyl)cyclobutanecarboxamido)-2-(2,4,6-trimethylphenylsulfonamido)propanoate], the IC50 is 3.3 ± 0.8 µM in the data set on M14, greater than 5 µM in the data set with Sk-Mel-2 and 0.15 ± 0.03 µM in the data set on M14 cells. Also, the “Adhesion % Inhibition @ 5 μM” value on αvβ3 is recorded as 72.3 ± 9.4%.
